Experimental data from patent publication US10383848B2, “Indole-based therapeutics” (Creighton University, priority 2016, dated 2019).
≈ marks a conversion by molar mass, not a printed value. Like-named read-outs stand apart in the source and are kept apart here.

Columns and labels:
[1] = tested on: M. massiliense strain 1513; test: Metabolic labeling and mycolic acid analysis; settings: 4x and 10x MIC, 16 hr, [1,2-14C]acetate labeling, TLC
Method: Cultures of M. massiliense 1513 grown to mid log-phase in Mueller-Hinton II broth were incubated with different concentrations of inhibitors for 16 hr at 37° C. with shaking. 0.5 μCi/mL [1,2-^14C]acetic acid (specific activity, 52 Ci/mol, PerkinElmer Inc.) was added at the same time as the inhibitors. Total lipids and cell wall-bound mycolic acid methyl esters were prepared from treated and untreated cells and analyzed by TLC as described in Grzegorzewicz et al, Nature Chemical Biology, 2012, 8:334+341.

M. abscessus ATCC 19977 = test: MIC, resazurin microtiter assay; assay type: cell-based; settings: Mycobacteroides abscessus
M. chelonae ATCC 35752 = test: MIC, resazurin microtiter assay; assay type: cell-based; settings: Mycobacteroides chelonae
M. abscessus 1513 = test: MIC/MBC by microbroth dilution (MH or 7H9 broth); assay type: cell-based, M. abscessus subsp. abscessus
M. intracellulare 1956 = test: MIC, resazurin microtiter assay; assay type: cell-based; settings: read-out: MIC M. avium Intracellulare 1956
[2] = In vivo acute toxicity assay (Maximum Tolerated Dose); set-up: species or system Balb/C mice; settings: 100, 200 and 300 mg/kg for 3 consecutive days of dosing, gavage, mice
Method: 6-8 week old Balb/C female mice were ordered from Charles River. Mice were rested one to two weeks before dosing. For each dose of compound, 3 mice were utilized. […] Compound was given twice per day for 3 consecutive days by gavage, at 100 μl/mouse. Compounds were prepared the day before or the day of dosing and stored at 4° C. until dosing. The time of dosing was recorded for each mouse. Observations were recorded immediately, at 10 min, 1 hour, 2 hours, 4 hours, and 24 hours after dosing. […] Mice were dosed for three days and on the fourth day mice were observed twice daily for two days, then once daily for five days.
As an initial in vivo study, the safety of compounds and preliminary pharmacokinetics was assessed in an acute toxicity mouse model (Maximum Tolerated Dose assay, MTD) to evaluate any potential adverse effects and determine a safe dose for mouse efficacy studies. Compounds were tested to ensure safe use in healthy mice prior to any further in vivo testing. […] Novel compounds were generally administered to mice at 40, 75 and 100 mg/kg in a tested formulation, administered on three consecutive days, 3 mice per dose group, in the chosen formulation. […] Mice were observed 10 min, 1, 2, 4 hours after dosing and then daily afterwards. During the observations, humane handling practices and animal welfare regulations were strictly followed. […]

M. abscessus 103 [3] = test: MIC/MBC by microbroth dilution (MH or 7H9 broth); assay type: cell-based, M. abscessus subsp. bolletii
M. bolletii ATCC 14472 = test: MIC, resazurin microtiter assay; assay type: cell-based; settings: for MIC: Mycobacteroides abscessus
[4] = tested on: M. massiliense CIP 108297; test: MIC, resazurin microtiter assay; assay type: cell-based; settings: Mycobacteroides abscessus
M. massiliense CRM 0019 = test: MIC, resazurin microtiter assay; assay type: cell-based; settings: for MIC: Mycobacteroides abscessus
M. smegmatis mc^2155 = test: MIC, resazurin microtiter assay; assay type: cell-based; settings: Mycolicibacterium smegmatis
[5] = tested on: M. tuberculosis H37Rv mc^26206; test: microbe, parasite or virus in culture; assay type: cell-based; settings: for Selectivity Index (TD50/MIC) M. tb H37Rv: TD50 in THP-1 cells
P. aeruginosa PAO-1 = test: MIC, resazurin microtiter assay; assay type: cell-based, Pseudomonas aeruginosa; settings: for MIC: Pseudomonas aeruginosa
S. aureus ATCC25923 = test: MIC, resazurin microtiter assay; assay type: cell-based; settings: Staphylococcus aureus
M. abscessus DCI #21 = test: MIC, resazurin microtiter assay; assay type: cell-based; settings: for MIC: Mycobacteroides abscessus, read-out: MIC M. abscessus DCI #21
M. avium 104 = test: MIC, resazurin microtiter assay; assay type: cell-based; settings: Mycobacterium avium, 104, read-out: MIC M. avium 104
M. abscessus 103 [6] = test: Acute SCID mouse infection efficacy model; settings: for log10 CFU liver counts on day 12 / log10 CFU spleen counts on day 12: SCID mice i.v. infected with M. abscessus 103, compounds 300 mg/kg PO in 20% cyclodextrin, AMI 150 mg/kg SQ, once daily 8 days
THP-1 cells = test: Cytotoxicity assay, THP-1 cell viability (CellTiter-Glo); assay type: cell-based, human; settings: 3 days
Method: The cytotoxicity of compounds was determined by measuring THP-1 cell viability after 3 days in the presence of test compounds. Compounds were prepared as 10-point serial dilutions in DMSO. The highest concentration of compound tested was 50 μM where compounds were soluble in DMSO at 10 mM. THP-1 cells were cultured in complete RPMI and differentiated into macrophage-like cells using 80 nM PMA overnight at 37° C., 5% CO2. Cells were inoculated into assay plates and cultured for 24 h before compound dilutions were added to a final DMSO concentration of 0.5%. Each run included staurosporine as a control. Assay plates were incubated for 3 days at 37° C., 5% CO2, growth was measured using the CellTiter-Glo® Luminescent Cell Viability Assay (Promega) which uses ATP as an indicator of cell viability. Relative luminescent units (RLU) were measured using a Biotek Synergy 4 plate reader. The dose response curve was fitted using the Levenberg-Marquardt algorithm.

M. xenopi WT = test: MIC, resazurin microtiter assay; assay type: cell-based; settings: Mycobacterium xenopi, read-out: MIC M. xenopi WT
mycobacteria = test: organism not typed; assay type: cell-based; settings: lowest concentration reducing CFU by 90% relative to the inoculum; strain not stated; read-out: MBC90
[7] = Dose response pharmacokinetics, plasma concentration by LC-MS/MS; assay type: in vivo, BALB/c mice; settings: single oral dose 100 and 200 mg kg^-1, 2 and 4 h, mice
Method: P.O. dosing at 100, 200 and 300 mg kg^−1 was administered; after administration, blood was collected at 2 and 4 hour time points for quantification. Plasma concentration of the compounds 5 and 25 was determined using liquid chromatography tandem mass spectrometry. Data are presented as mean±SD.
Female BALB/c mice were given a dose of compounds 5 or 25 at 100, 200 and 300 mg kg′ by oral gavage in a volume of 0.2 mL. At 2 and 4 hours after compound administration, animals were euthanized and cardiac blood (approximately 0.7 mL) was collected. Plasma was separated using centrifugation at 12,000 g for 20 min at 4° C. and stored at […]. Concentrations of compounds 5 and 25 in plasma were analyzed with LC-tandem MS (LC-MS/MS, AB SCIEX QTRAP 5500 system) with warfarin as internal standard. MS detection of mass transitions 295.2/135.2 (Compound 5), 299.2/146.1 (Compound 25) and 309.1/163.0 (Warfarin) was carried out. Concentration calculation was performed with MultiQuant Software (Version 2.1, AB SCIEX). The pharmacokinetic profile of the test compound was analyzed from plasma concentration-time data after oral administration.

panel of mycobacteria = test: MIC against a panel of mycobacteria (summary ranges); assay type: cell-based; settings: M. avium and M. xenopi strains of Table 3
M. abscessus 103 [8] = settings: mouse, in vivo, 300 mg/kg
[9] = infected SCID mice, daily 300 mg/kg in 20% cyclodextrin

O=C(NC12CC3CC(CC(C3)C1)C2)c1cc2ccccc2[nH]1 [Compound 5, N-(1-adamantyl)-1H-indole-2-carboxamide]
TMM build-up and mycolic acid transfer onto arabinogalactan and TDM [1]: concentration-dependent build-up of TMM | MIC (M. abscessus ATCC 19977; ATCC19977, read-out: MIC M. abscessus ATCC 19977): 0.25 µg/mL (≈ 0.849 µM) | MIC (M. chelonae ATCC 35752; ATCC35752, read-out: MIC M. chelonae ATCC 35752): 0.25 µg/mL (≈ 0.849 µM) | MIC (M. abscessus 1513; Mycobacteroides abscessus, 1513, read-out: MIC M. abscessus 1513, 7H9 Broth): > 64 µg/mL | MIC (M. abscessus 1513; Mycobacteroides abscessus, 1513, read-out: MIC M. abscessus 1513, MH Broth): 32 µg/mL (≈ 109 µM) | MIC (M. intracellulare 1956): 8 µg/mL (≈ 27.2 µM) | Tolerability (acute toxicity, MTD) [2]: well tolerated | MIC (M. abscessus 103 [3]; Mycobacteroides abscessus, 103, read-out: MIC M. abscessus 103, 7H9 Broth): > 64 µg/mL | MIC (M. abscessus 103 [3]; Mycobacteroides abscessus, 103, read-out: MIC M. abscessus 103, MH Broth): 16 µg/mL (≈ 54.3 µM) | MIC (M. bolletii ATCC 14472; ATCC14472, read-out: MIC M. bolletii ATCC 14472): 0.25 µg/mL (≈ 0.849 µM) | Selectivity Index (TD50/MIC) M. bolletii (M. bolletii ATCC 14472; TD50 in THP-1 cells): >58 | MIC ([4]; CIP108297, read-out: MIC M. massiliense CIP 108297): 0.5 µg/mL (≈ 1.7 µM) | MIC (M. massiliense CRM 0019; CRM0019, read-out: MIC M. massiliense CRM 0019): 0.25 µg/mL (≈ 0.849 µM) | Selectivity Index (TD50/MIC) M. Massiliense CRM0019 (M. massiliense CRM 0019; TD50 in THP-1 cells): >58 | MIC (M. smegmatis mc^2155; MC^2155, read-out: MIC M. smeg. mc^2155): 1.56 µg/mL (≈ 5.3 µM) | MIC ([5]; Mycobacterium tuberculosis, H37RV, read-out: MIC M. tb H37 Rv (mc2-6206)): 0.2 µg/mL (≈ 0.679 µM) | Selectivity Index (TD50/MIC) M. tb H37Rv [5]: >73 | MIC P. aeruginosa PAO-1 (P. aeruginosa PAO-1; Mueller Hinton II): inactive | MIC (P. aeruginosa PAO-1; PAO1, read-out: MIC P. aeruginosa PAO-1): > 160 µg/mL | MIC (S. aureus ATCC25923; ATCC25923, read-out: MIC S. aureus ATCC25923): > 160 µg/mL | MIC (M. abscessus DCI #21): 0.25 µg/mL (≈ 0.849 µM) | Selectivity Index (TD50/MIC) M. abscessus DCI #21 (M. abscessus DCI #21; TD50 in THP-1 cells): >58 | MIC (M. avium 104): 8 µg/mL (≈ 27.2 µM) | log10 CFU liver counts on day 12 (M. abscessus 103 [6]): 5.30±0.23 log10 CFU | log10 CFU spleen counts on day 12 (M. abscessus 103 [6]): 3.79±0.40 log10 CFU | Survival until the Day 12 endpoint (M. abscessus 103 [6]; [9]): all animals survived | Weight loss (M. abscessus 103 [6]; [9]): didn't demonstrate any significant weight loss | TD50 (THP-1 cells): >14.7 µg/mL | MIC (M. xenopi WT): 0.5 to 1 µg/mL (≈ 1.7 to 3.4 µM)

Cc1cc(C)c2cc(C(=O)NC3CCCCCCC3)[nH]c2c1 [Compound 25, N-cyclooctyl-4,6-dimethyl-1H-indole-2-carboxamide]
TMM build-up and mycolic acid transfer onto arabinogalactan and TDM [1]: concentration-dependent build-up of TMM | MIC (M. abscessus ATCC 19977; ATCC19977, Mueller Hinton II, read-out: MIC M. abscessus ATCC 19977): 0.063 µg/mL (≈ 0.211 µM) | MIC (M. chelonae ATCC 35752; ATCC35752, Mueller Hinton II, read-out: MIC M. chelonae ATCC 35752): 0.063 µg/mL (≈ 0.211 µM) | MBC (M. abscessus 1513; Mycobacteroides abscessus, 1513; MH broth; read-out: MBC99 M. abscessus subsp. abscessus 1513): 64 µg/mL (≈ 214 µM) | MIC (M. abscessus 1513; Mycobacteroides abscessus, 1513; read-out: MIC M. abscessus 1513, 7H9 Broth): > 64 µg/mL | MIC (M. abscessus 1513; Mycobacteroides abscessus, 1513; read-out: MIC M. abscessus 1513, MH Broth): 16 µg/mL (≈ 53.6 µM) | MIC (M. intracellulare 1956; Mueller Hinton II): 1 µg/mL (≈ 3.35 µM) | Tolerability (acute toxicity, MTD) [2]: well tolerated | MBC (M. abscessus 103 [3]; Mycobacteroides abscessus, 103; MH broth; read-out: MBC99 M. abscessus subsp. bolletii 103): 64 µg/mL (≈ 214 µM) | MIC (M. abscessus 103 [3]; Mycobacteroides abscessus, 103; read-out: MIC M. abscessus 103, 7H9 Broth): > 64 µg/mL | MIC (M. abscessus 103 [3]; Mycobacteroides abscessus, 103; read-out: MIC M. abscessus 103, MH Broth): 16 µg/mL (≈ 53.6 µM) | MIC (M. bolletii ATCC 14472; ATCC14472, Mueller Hinton II, read-out: MIC M. bolletii ATCC 14472): 0.0039 µg/mL (≈ 0.0131 µM) | MIC ([4]; CIP108297, Mueller Hinton II, read-out: MIC M. massiliense CIP 108297): 0.031 µg/mL (≈ 0.104 µM) | MIC (M. massiliense CRM 0019; CRM0019, Mueller Hinton II, read-out: MIC M. massiliense CRM 0019): 0.0078 µg/mL (≈ 0.0261 µM) | MBC (mycobacteria): 0.015 µg/mL (≈ 0.0503 µM) | Blood concentration compared to compound 5 [7]: lower blood concentration | MIC (M. smegmatis mc^2155; MC^2155, 7H9-ADC-0.05% Tween 80, read-out: MIC M. smeg. mc^2155): 0.313 to 0.625 µg/mL (≈ 1.05 to 2.09 µM) | Selectivity Index (TD50/MIC) M. tb H37Rv [5]: >764 | MIC P. aeruginosa PAO-1 (P. aeruginosa PAO-1; Mueller Hinton II): inactive | MIC (P. aeruginosa PAO-1; PAO1, Mueller Hinton II, read-out: MIC P. aeruginosa PAO-1): > 160 µg/mL | MIC (S. aureus ATCC25923; ATCC25923, Mueller Hinton II, read-out: MIC S. aureus ATCC25923): > 160 µg/mL | MIC (M. abscessus DCI #21; Mueller Hinton II): 0.0078 µg/mL (≈ 0.0261 µM) | MIC range in MAC panel (panel of mycobacteria): 0.25 to 1 µg/mL | log10 CFU liver counts on day 12 (M. abscessus 103 [6]): 4.90±0.49 log10 CFU | log10 CFU spleen counts on day 12 (M. abscessus 103 [6]): 2.91±0.45 log10 CFU | Survival until the Day 12 endpoint (M. abscessus 103 [8]): all animals survived | Weight loss (M. abscessus 103 [8]): didn't demonstrate any significant weight loss | TD50 (THP-1 cells): >14.9 µg/mL | MIC (M. xenopi WT; Mueller Hinton II): 0.25 µg/mL (≈ 0.838 µM)
